# Measurements taken from ChEMBL document CHEMBL5727946, “PD-1/PD-L1 inhibitors” (2020).
# Target: Programmed cell death protein 1/Programmed cell death 1 ligand 1 (Homo sapiens, UniProt Q15116+Q9NZQ7)
# Test: PD-1/PD-L1 & CTLA/CD80 Biochemical Protein-Protein Interaction Assay: Compounds were tested in biochemical protein-protein interaction assays to determine if they can specifically block the interaction between the extracellular domains of PD-1/PD-L1 or CTLA/CD80. Binding of the protein pairs is measured using a bead based Amplified Luminescent Proximity Homogeneous Assay (ALPHA) platform. […] Final protein concentration in the assays were 0.3 nM (His tagged PD-L1), 2.5 nM (biotinylated Fc-PD-1), 1 nM (His tagged CTLA4) and 1 nM (biotinylated CD80).
# Format: protein-complex assay
# Sequence of Programmed cell death protein 1/Programmed cell death 1 ligand 1 (Q15116 whole entry, the tested form may be a part): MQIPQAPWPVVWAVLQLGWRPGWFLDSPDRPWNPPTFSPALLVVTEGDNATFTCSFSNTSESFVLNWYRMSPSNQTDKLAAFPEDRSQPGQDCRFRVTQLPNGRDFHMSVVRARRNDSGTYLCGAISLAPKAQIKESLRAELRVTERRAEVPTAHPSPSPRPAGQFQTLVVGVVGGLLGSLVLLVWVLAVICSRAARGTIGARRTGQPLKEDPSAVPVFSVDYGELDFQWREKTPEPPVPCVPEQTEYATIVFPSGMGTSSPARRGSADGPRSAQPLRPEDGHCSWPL
# Sequence of Programmed cell death protein 1/Programmed cell death 1 ligand 1 (Q9NZQ7 whole entry, the tested form may be a part): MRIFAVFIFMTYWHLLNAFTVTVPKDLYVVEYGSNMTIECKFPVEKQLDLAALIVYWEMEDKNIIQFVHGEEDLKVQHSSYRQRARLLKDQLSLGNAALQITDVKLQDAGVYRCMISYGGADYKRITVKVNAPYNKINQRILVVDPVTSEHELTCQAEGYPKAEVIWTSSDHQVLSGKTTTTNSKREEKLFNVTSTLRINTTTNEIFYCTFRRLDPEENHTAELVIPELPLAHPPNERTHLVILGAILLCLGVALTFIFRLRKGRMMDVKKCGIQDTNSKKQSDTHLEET
row,SMILES,IC50 [nM]
1,COc1nc(O[C@H]2CCc3c(-c4cccc(-c5cnc([C@@H](C)NC[C@H]6CCC(=O)N6)c(OC)n5)c4Cl)cccc32)c(Cl)cc1CN1CC[C@@H](C(=O)O)C1,≤ 0.064
2,CCS(=O)(=O)NC(=O)[C@@H]1CCN(Cc2cc(Cl)c(O[C@H]3CCc4c(-c5cccc(-c6ccc(CNC[C@@H]7CCC(=O)N7)c(OC)n6)c5Cl)cccc43)nc2OC)C1,0.117
3,COc1nc(-c2cccc(-c3cccc4c3CC[C@@H]4Oc3nc(OC)c(CN4CC[C@@H](C(=O)NS(C)(=O)=O)C4)cc3Cl)c2Cl)ccc1CN1CC(C)(O)C1,≤ 0.064
4,COc1nc(-c2cccc(-c3cccc4c3CC[C@@H]4Oc3nc(OCc4cncc(Cl)c4)c(CNC4(C(=O)O)CC4)cc3C(F)(F)F)c2Cl)ccc1CNC[C@@H]1CCC(=O)N1,0.101
5,COc1nc(-c2cccc(-c3cccc4c3CC[C@@H]4Oc3nc(OC)c(CN4CC[C@@H](C(=O)NS(=O)(=O)C(F)F)C4)cc3Cl)c2Cl)ccc1CNC[C@@H]1CCC(=O)N1,0.152
6,COc1nc(-c2cccc(-c3cccc4c3CC[C@@H]4Oc3nc(OC)c(CN4CC(C(=O)NS(=O)(=O)C(F)F)C4)cc3Cl)c2Cl)ccc1CNC[C@@H]1CCC(=O)N1,0.199
7,COc1nc(-c2cccc(-c3cccc4c3CC[C@@H]4Oc3nc(OCc4cncc(C#N)c4)c(CN4CC[C@@H](C(=O)O)C4)cc3Cl)c2Cl)ccc1CNC[C@@H]1CCC(=O)N1,≤ 0.064
8,COc1nc(-c2cccc(-c3cccc4c3CC[C@@H]4Oc3nc(OC)c(CN4CCC[C@@H]4C(=O)O)cc3Cl)c2Cl)ccc1CNC[C@@H]1CCC(=O)N1,≤ 0.064
9,COc1nc(-c2cccc(-c3cccc4c3CC[C@@H]4Oc3nc(OC)c(CN4CC[C@@H](C(=O)NS(C)(=O)=O)C4)cc3Cl)c2Cl)ccc1CNC[C@@H]1CCC(=O)N1,≤ 0.064
10,COc1nc(-c2cccc(-c3cccc4c3CC[C@@H]4Oc3nc(OC)c(CN4CCC[C@H]4C(=O)O)cc3Cl)c2Cl)ccc1CNC[C@@H]1CCC(=O)N1,≤ 0.064
11,COc1nc(-c2cccc(-c3cccc4c3CC[C@@H]4Oc3nc(OC)c(CN4CC(C(=O)NS(C)(=O)=O)C4)cc3Cl)c2Cl)ccc1CN1CC(C)(O)C1,0.088
12,COc1nc(-c2cccc(-c3cccc4c3CC[C@@H]4Oc3nc(OCc4cncc(F)c4)c(CN4CC5(C(=O)O)CCC4CC5)cc3Cl)c2Cl)ccc1CNC[C@@H]1CCC(=O)N1,≤ 0.064
13,COc1nc(-c2cccc(-c3cccc4c3CC[C@@H]4Oc3nc(OC)c(CNC4(C(=O)O)CCC4)cc3Cl)c2Cl)ccc1CNC[C@@H]1CCC(=O)N1,≤ 0.064
14,CCOc1nc(O[C@H]2CCc3c(-c4cccc(-c5ccc(CNC[C@@H]6CCC(=O)N6)c(OC)n5)c4Cl)cccc32)c(Cl)cc1CN1CC2(C(=O)O)CCC1CC2,≤ 0.064
15,COc1nc(-c2cccc(-c3cccc4c3CC[C@@H]4Oc3nc(OCc4cncc(C#N)c4)c(CN4CC[C@H](C(=O)O)C4)cc3Cl)c2Cl)ccc1CNC[C@@H]1CCC(=O)N1,≤ 0.064
16,COc1nc(-c2cccc(-c3cccc4c3CC[C@@H]4Oc3nc(OC)c(CN4CC(C(=O)O)C4)cc3Cl)c2Cl)ccc1CN1CC(C)(O)C1,≤ 0.064
17,COc1nc(-c2cccc(-c3cccc4c3CC[C@@H]4Oc3nc(OCC#N)c(CN4CC5(C(=O)O)CCC4CC5)cc3Cl)c2Cl)ccc1CNC[C@@H]1CCC(=O)N1,≤ 0.064
18,COc1nc(-c2cccc(-c3cccc4c3CC[C@@H]4Oc3nc(OCc4cncc(C#N)c4)c(CN4CC5(C(=O)O)CCC4CC5)cc3Cl)c2Cl)ccc1CNC[C@@H]1CCC(=O)N1,≤ 0.064
19,COc1nc(-c2cccc(-c3cccc4c3CC[C@@H]4Oc3nc(OC)c(CN4CC[C@H](C(=O)NS(C)(=O)=O)C4)cc3Cl)c2Cl)ccc1CNC[C@@H]1CCC(=O)N1,≤ 0.064
20,CCOC(=O)C1CN(Cc2cc(Cl)c(O[C@H]3CCc4c(-c5cccc(-c6ccc(CNC[C@@H]7CCC(=O)N7)c(OC)n6)c5Cl)cccc43)nc2OC)C1,1.99
21,COc1nc(-c2cccc(-c3cccc4c3CC[C@@H]4Oc3nc(OC)c(CN4CCC[C@@H](C(=O)NS(C)(=O)=O)C4)cc3Cl)c2Cl)ccc1CNC[C@@H]1CCC(=O)N1,0.068
22,COC(=O)[C@@H]1CCN(Cc2cc(Cl)c(O[C@H]3CCc4c(-c5cccc(-c6ccc(CNC[C@@H]7CCC(=O)N7)c(OC)n6)c5Cl)cccc43)nc2OC)C1,3.9
23,COc1nc(-c2cccc(-c3cccc4c3CC[C@@H]4Oc3nc(OC)c(CNC4(C(=O)O)CC4)cc3Cl)c2Cl)ccc1CNC[C@@H]1CCC(=O)N1,≤ 0.064
24,COc1nc(-c2cccc(-c3cccc4c3CC[C@@H]4Oc3nc(OC)c(CNC4(C(=O)O)CCOCC4)cc3Cl)c2Cl)ccc1CNC[C@@H]1CCC(=O)N1,≤ 0.064
25,COc1nc(-c2cccc(-c3cccc4c3CC[C@@H]4Oc3nc(OC)c(CN4CCC[C@@]4(C)C(=O)O)cc3Cl)c2Cl)ccc1CNC[C@@H]1CCC(=O)N1,≤ 0.064
26,COc1nc(-c2cccc(-c3cccc4c3CC[C@@H]4Oc3nc(OC)c(CN[C@@H]4CCC[C@@H]4C(=O)O)cc3Cl)c2Cl)ccc1CNC[C@@H]1CCC(=O)N1,≤ 0.064
27,COc1nc(-c2cccc(-c3cccc4c3CC[C@@H]4Oc3nc(OC(F)F)c(CN4CC5(C(=O)O)CCC4CC5)cc3Cl)c2Cl)ccc1CNC[C@@H]1CCC(=O)N1,0.169
28,CCOc1nc(O[C@H]2CCc3c(-c4cccc(-c5ccc(CNC[C@@H]6CCC(=O)N6)c(OC)n5)c4Cl)cccc32)c(Cl)cc1CN1CC[C@H](C(=O)O)C1,≤ 0.064
